The supplement of paper PMC8671470

Columns and labels:
Conditions in all cases: 72 h
NOMO-1 = assay: cell viability (% survival relative to DMSO control, bortezomib = 0%); higher = less cytotoxic
In short: (§1)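 Percent survival is reported as the mean of duplicate wells. Cells from 10 AML and 5 CML lines were plated in 384-well plates containing compounds at 1, 10, 100, 1000 or 10000 nM and kept for 72 h at 37 °C in 5% CO2. Readout used CellTiter-Glo luminescence, scaled so that vehicle equals 100% and a 10 µM positive control equals 0%.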

THP-1 = assay: as above
In short: as §1

MOLM-13 = assay: as above
In short: as §1

KU-812 = assay: as above
In short: as §1

[1] = test system: myeloid leukemia patient primary cells Pat.14; assay: cell viability (% survival relative to DMSO control); higher = less cytotoxic
In short: (§2)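 Thawed, Ficoll-purified mononuclear cells from AML or CML patients in RPMI 1640 with 10% FBS were seeded at 10,000 cells/well on 384-well plates pre-printed with 70 compounds at five tenfold concentrations, 1–10,000 nM, in duplicate, for 72 h. Viability was read by CellTiter-Glo and normalised to DMSO and 10 μM proteasome-inhibitor wells. Where given, area under the curve came from four-parameter log-logistic fits (drc, PharmacoGx R packages).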

[2] = test system: myeloid leukemia patient primary cells Pat.5; assay: as above
In short: as §2

[3] = test system: myeloid leukemia patient primary cells Pat.10; assay: as above
In short: as §2

[4] = test system: myeloid leukemia patient primary cells Pat.15; assay: as above
In short: as §2

[5] = test system: myeloid leukemia patient primary cells Pat.7; assay: as above
In short: as §2

[6] = test system: myeloid leukemia patient primary cells Pat.1; assay: as above
In short: as §2

[7] = test system: myeloid leukemia patient primary cells Pat.6; assay: as above
In short: as §2

[8] = test system: myeloid leukemia patient primary cells Pat.8; assay: as above
In short: as §2

[9] = test system: myeloid leukemia patient primary cells Pat.3; assay: as above
In short: as §2

[10] = test system: myeloid leukemia patient primary cells Pat.13; assay: as above
In short: as §2

[11] = test system: myeloid leukemia patient primary cells Pat.2; assay: as above
In short: as §2

[12] = test system: myeloid leukemia patient primary cells Pat.9; assay: as above
In short: as §2

[13] = test system: myeloid leukemia patient primary cells Pat.11; assay: as above
In short: as §2

[14] = test system: myeloid leukemia patient primary cells Pat.4; assay: as above
In short: as §2

[15] = test system: myeloid leukemia patient primary cells Pat.12; assay: as above
In short: as §2

SMILES: Fc1ccc(CNc2ncnc3ccc(F)cc23)cc1 [Spautin 1]
- cell viability (NOMO-1; 1 nM): 103%
- cell viability (NOMO-1; 10 nM): 102%
- cell viability (NOMO-1; 100 nM): 110%
- cell viability (NOMO-1; 1000 nM): 97.3%
- cell viability (NOMO-1; 10000 nM): 77.1%
- cell viability (THP-1; 1 nM): 95.5%
- cell viability (THP-1; 10 nM): 103%
- cell viability (THP-1; 100 nM): 103%
- cell viability (THP-1; 1000 nM): 106%
- cell viability (THP-1; 10000 nM): 79.1%
- cell viability (MOLM-13; 1 nM): 93.1%
- cell viability (MOLM-13; 10 nM): 89.7%
- cell viability (MOLM-13; 100 nM): 122%
- cell viability (MOLM-13; 1000 nM): 108%
- cell viability (MOLM-13; 10000 nM): 50.9%
- cell viability (KU-812; 1 nM): 96.8%
- cell viability (KU-812; 10 nM): 96.3%
- cell viability (KU-812; 100 nM): 94.5%
- cell viability (KU-812; 1000 nM): 62.3%
- cell viability (KU-812; 10000 nM): 12.6%
- cell viability ([1]; 1 nM): 87.2%
- cell viability ([1]; 10 nM): 56.5%
- cell viability ([1]; 100 nM): 90.5%
- cell viability ([1]; 1000 nM): 60.7%
- cell viability ([1]; 10000 nM): 31.2%
- cell viability ([2]; 1 nM): 84.9%
- cell viability ([2]; 10 nM): 17%
- cell viability ([2]; 100 nM): 78.9%
- cell viability ([2]; 1000 nM): 25.9%
- cell viability ([2]; 10000 nM): 2.01%
- cell viability ([3]; 1 nM): 73%
- cell viability ([3]; 10 nM): 15.3%
- cell viability ([3]; 100 nM): 96.8%
- cell viability ([3]; 1000 nM): 78.5%
- cell viability ([3]; 10000 nM): 47.9%
- cell viability ([4]; 1 nM): 96.5%
- cell viability ([4]; 10 nM): 90.9%
- cell viability ([4]; 100 nM): 91.5%
- cell viability ([4]; 1000 nM): 79.4%
- cell viability ([4]; 10000 nM): 25.9%
- cell viability ([5]; 1 nM): 74.6%
- cell viability ([5]; 10 nM): 70.9%
- cell viability ([5]; 100 nM): > 100%
- cell viability ([5]; 1000 nM): 58.8%
- cell viability ([5]; 10000 nM): 30.3%
- cell viability ([6]; 1 nM): 97%
- cell viability ([6]; 10 nM): 84.4%
- cell viability ([6]; 100 nM): 88.1%
- cell viability ([6]; 1000 nM): 81.7%
- cell viability ([6]; 10000 nM): 46.4%
- cell viability ([7]; 1 nM): > 100%
- cell viability ([7]; 10 nM): 86.8%
- cell viability ([7]; 100 nM): 96.6%
- cell viability ([7]; 1000 nM): 87.9%
- cell viability ([7]; 10000 nM): 42.2%
- cell viability ([8]; 1 nM): 93.5%
- cell viability ([8]; 10 nM): 82.1%
- cell viability ([8]; 100 nM): 85.6%
- cell viability ([8]; 1000 nM): 80.7%
- cell viability ([8]; 10000 nM): 51.1%
- cell viability ([9]; 1 nM): 63.4%
- cell viability ([9]; 10 nM): 49.7%
- cell viability ([9]; 100 nM): > 100%
- cell viability ([9]; 1000 nM): 33.1%
- cell viability ([9]; 10000 nM): 69.9%
- cell viability ([10]; 1 nM): 97.7%
- cell viability ([10]; 10 nM): 78.3%
- cell viability ([10]; 100 nM): 89.4%
- cell viability ([10]; 1000 nM): 75.7%
- cell viability ([10]; 10000 nM): 34.9%
- cell viability ([11]; 1 nM): 97.1%
- cell viability ([11]; 10 nM): 88.7%
- cell viability ([11]; 100 nM): > 100%
- cell viability ([11]; 1000 nM): 87.3%
- cell viability ([11]; 10000 nM): 77.2%
- cell viability ([12]; 1 nM): 67.2%
- cell viability ([12]; 10 nM): 7.92%
- cell viability ([12]; 100 nM): 65.9%
- cell viability ([12]; 1000 nM): 12.7%
- cell viability ([12]; 10000 nM): 5.45%
- cell viability ([13]; 1 nM): > 100%
- cell viability ([13]; 10 nM): 96.2%
- cell viability ([13]; 100 nM): 97.9%
- cell viability ([13]; 1000 nM): 92.2%
- cell viability ([13]; 10000 nM): 84.7%
- cell viability ([14]; 1 nM): 77.2%
- cell viability ([14]; 10 nM): 87.3%
- cell viability ([14]; 100 nM): 96.2%
- cell viability ([14]; 1000 nM): 70.4%
- cell viability ([14]; 10000 nM): 50.5%
- cell viability ([15]; 1 nM): 97.3%
- cell viability ([15]; 10 nM): 87.3%
- cell viability ([15]; 100 nM): > 100%
- cell viability ([15]; 1000 nM): > 100%
- cell viability ([15]; 10000 nM): 72.6%
